Test results taken from patent US10913750B2, “Tubulin-binding compounds, compositions and uses related thereto” (The Regents of the University of California, priority 2015, dated 2021).

Key:
Type in all cases: cell-based
M376 = assay: CellTiter-Glo cell viability, M376
Method: (§1) To determine if MI-181 had broad anti-cancer activity, we treated a diverse panel of cancer cell lines including cervical adenocarcinoma (HeLa), breast adenocarcinoma (MCF7), melanoma (M233), osteosarcoma (U205), acute lymphoblastic leukemia (CCRF-CEM), non-small cell lung carcinoma (NCI-H460), and breast adenocarcinoma (MCF7) with MI-181 and determined its cell viability IC50 (FIGS. 13A and 13B). […] Therefore, the efficacy of MI-181 was analyzed in a panel of melanoma cell lines with defined genetic backgrounds including BRAF^V600E and NRAS^Q61L mutations and varied sensitivities to Vemurafenib (BRAF inhibitor) and Trametinib (MEK inhibitor), which are currently used to treat BRAF^V600E melanomas^43,44 (FIG. 10c). […] As a general trend BRAF^V600E cell lines were slightly more sensitive than NRAS^Q61L cell lines and MI-181 was effective in Vemurafenib and Trametinib resistant cell lines (FIG. 10c and Table 3). Finally, we tested the ability of MI-181 to inhibit melanoma colony formation using the M233 and M308 cell lines (both resistant to Vemurafenib). Indeed, MI-181 was a potent inhibitor of colony formation (percentage colony formation for 10 nM MI-181=0.2±0.1 and 0.8±0.7; for 10 nM colchicine=0.1±0.06 and 1.5±0.5; and for 10 nM Vemurafenib=94±7 and 102±5) (FIG. 10d). Thus, MI-181 is a potent inhibitor of melanoma cell lines. […]

HeLa cells = assay: CellTiter-Glo cell viability, HeLa cells; conditions: Homo sapiens, HeLa
Method: The cell viability IC50 of each compound was determined using Promega CellTiter-Glo Luminescent Cell Viability Assay kit by measuring the total ATP levels to quantify the number of metabolically active cells upon drug treatment as described in Crouch et al., J Immunol Methods 1993, 160, (1), 81-8. Briefly, the compounds were suspended in DMSO at 10 mM and diluted in 384 plates (20 μl/well in DMSO) in triplicate by a 14-point titration (12 nM to 100 μM). 50 μl of HeLa cells or patient derived glioblastoma cells (HK-309) (2000 cells/well) were then treated with the prepared dilutions of the drugs (0.5 μl) and incubated at 37° C. and 5% CO2. 72 hours later 50 μl of CellTiter-Glo reagent was added to each well followed by a 2 minutes shaking and a 10-minute incubation to lyse the cells. The relative luminescent intensity units (RLU) of each well was measured using a Tecan M1000 microplate reader (Tecan Group Ltd.) with its green filter and 1 second integration time.
Cells used in Example 2 and other examples disclosed herein were cultured as follows: Adherent HeLa cells and patient derived glioblastoma cells were grown with 5% CO2 at 37° C. in F12:DMEM 50:50 medium (Invitrogen) containing 10% FBS and 1% penicillin/streptomycin. To obtain HeLa cells synchronized in mitosis, cycling cells were treated with 2 mM thymidine (Sigma-Aldrich) for eighteen hours, washed three times with PBS, and released into fresh media until they entered mitosis eight hours post-release. Patient-derived glioblastoma cells (HK-309) were collected and grown with approval from the UCLA Institutional Review Board. HK-309 was derived from a recurrent glioblastoma taken from a person. The cells were initially propagated as cancer stem cell-containing spheres in serum-free medium containing basic fibroblast growth factor and epidermal growth factor (Preprotech) as described previously by Visnyei et al., Mol Cancer Ther 2011, 10, (10), 1818-28.
For mitotic arrest IC50s, cells were treated with a twenty-point-2-fold-titration (190 pM to 10 μM) of each compound tested for 20 hours. For cell viability IC50s, cells were treated with a fourteen-point-2-fold-titration (12.2 nM to 100 μM). Mitotic arrest IC50 was determined by measuring the percent G2/M arrest using the Vybrant DyeCycle Green (Invitrogen) assay described above. Cell viability IC50 was determined using the CellTiter-Glo Assay (Promega), which measures total ATP levels. Plates were read with a Tecan M1000 micro-plate reader at 540 nm. The CDD software was used for generating IC50 and IC90 values.

M318 = assay: CellTiter-Glo cell viability, M318
Method: as §1

M308 = assay: Melanoma colony formation, M308; conditions: 10 nM, M308 (second value of pair)
Method: To determine if MI-181 had broad anti-cancer activity, we treated a diverse panel of cancer cell lines including cervical adenocarcinoma (HeLa), breast adenocarcinoma (MCF7), melanoma (M233), osteosarcoma (U205), acute lymphoblastic leukemia (CCRF-CEM), non-small cell lung carcinoma (NCI-H460), and breast adenocarcinoma (MCF7) with MI-181 and determined its cell viability IC50 (FIGS. 13A and 13B). […] Therefore, the efficacy of MI-181 was analyzed in a panel of melanoma cell lines with defined genetic backgrounds including BRAF^V600E and NRAS^Q61L mutations and varied sensitivities to Vemurafenib (BRAF inhibitor) and Trametinib (MEK inhibitor), which are currently used to treat BRAF^V600E melanomas^43,44 (FIG. 10c). […] As a general trend BRAF^V600E cell lines were slightly more sensitive than NRAS^Q61L cell lines and MI-181 was effective in Vemurafenib and Trametinib resistant cell lines (FIG. 10c and Table 3). Finally, we tested the ability of MI-181 to inhibit melanoma colony formation using the M233 and M308 cell lines (both resistant to Vemurafenib). Indeed, MI-181 was a potent inhibitor of colony formation (percentage colony formation for 10 nM MI-181=0.2±0.1 and 0.8±0.7; for 10 nM colchicine=0.1±0.06 and 1.5±0.5; and for 10 nM Vemurafenib=94±7 and 102±5) (FIG. 10d). Thus, MI-181 is a potent inhibitor of melanoma cell lines.

melanoma (M233) = assay: CellTiter-Glo cell viability, M233
Method: as §1

M244 = assay: CellTiter-Glo cell viability, M244
Method: as §1

cells = assay: Immunoblot analysis of synchronized cells and drug washout (mitotic arrest reversibility)
Method: Phospho-histone-H3-488 (Ser10) (p-H3-488, Cell Signaling), α-tubulin (Serotec), AurKB (BD Transduction), Anti-Centromere-Antibodies (ACA, Cortex Biochem), cyclin A and B (Santa Cruz Biotechnology), and SECURIN (Gene Tex). BubR1 and Bub1 were from Hongtao Yu. FITC-, Cy3- and Cy5-conjugated secondary antibodies were from Jackson Immuno Research.
Cells were synchronized in G1/S, released into the cell cycle in the presence of DMSO or MI-181, and cell extracts were prepared at several time points post-release. […] Additionally, the MI-182-induced mitotic arrest was reversible, as cells exited mitosis within 2 hours of drug washout (FIG. 9).

M202 = assay: CellTiter-Glo cell viability, M202
Method: as §1

M368 = assay: CellTiter-Glo cell viability, M368
Method: as §1

M207 = assay: CellTiter-Glo cell viability, M207
Method: as §1

Compound: Cc1cc2nc(/C=C/c3cccnc3)sc2cc1C [MI-181]
- IC50 (M376): 39.7 nM
- IC50 (HeLa cells): 17.4 nM
- IC50 (M318): 54.9 nM
- percentage colony formation (M308): 0.8±0.7
- IC50 (melanoma (M233)): 24.4 nM
- IC50 (M244): 41.5 nM
- reversibility of induced mitotic arrest (cells; FIG. 9): reversible
- cell cycle state by immunoblot (cells; cells synchronized in G1/S, released in presence of drug): arrested in mitosis (p-H3 positive), activated the SAC (BubR1 remained phosphorylated) and stabilized cyclin B while degrading cyclin A
- time to exit mitosis after drug washout (cells; drug washout): ≤ 2 h
- IC50 (M202): 88.3 nM
- IC50 (M368): 42.1 nM
- IC50 (M207): 41.7 nM
